Experimental data as given in ChEMBL document CHEMBL1158923, “Cytotoxic metabolites from the sponge Ianthella basta collected in Papua New Guinea” (1990).
Values after ≈ are worked out from the molar mass of the structure shown.

Test system: L1210
Test: Cytotoxicity against mouse L1210 cells
Type: functional
Conditions: read-out: ED50 (the source's name)

Compound: O=C1N/C=C/c2ccc(c(Br)c2)Oc2cc(cc(Br)c2O)CCNC(=O)/C(=N/O)Cc2cc(Br)c(c(Br)c2)Oc2cc(cc(Br)c2O)C/C1=N\O [BASTADIN 4]
- EC50: 5 µg/mL (≈ 4.92 µM)

Compound: CO/N=C1\Cc2ccc(c(Br)c2)Oc2cc(cc(Br)c2OC)C/C(=N\OC)C(=O)NCC(O)c2cc(Br)c(c(Br)c2)Oc2cc(cc(Br)c2OC)CCNC1=O (stereo unspecified) [TETRAMETHYLBASTADIN 9]
- EC50: 5 µg/mL (≈ 4.58 µM)

Compound: CO/N=C1/Cc2cc(Br)c(c(Br)c2)Oc2cc(cc(Br)c2OC)C/C(=N\OC)C(=O)NCC(O)c2ccc(c(Br)c2)Oc2cc(cc(Br)c2OC)CCNC1=O (stereo unspecified) [TETRAMETHYLBASTADIN 8]
- EC50: 5 µg/mL (≈ 4.58 µM)

Compound: CO/N=C1\Cc2cc(Br)c(OC)c(c2)Oc2c(Br)cc(cc2Br)C/C(=N\OC)C(=O)NCCc2cc(Br)c(OC)c(c2)Oc2ccc(cc2Br)/C=C/NC1=O [TETRAMETHYLBASTADIN 4]
- EC50: 5 µg/mL (≈ 4.66 µM)

Compound: O=C1NCCc2cc(Br)c(O)c(c2)Oc2ccc(cc2Br)[C@H](O)CNC(=O)/C(=N/O)Cc2cc(Br)c(O)c(c2)Oc2c(Br)cc(cc2Br)C/C1=N\O [BASTADIN 8]
- EC50: 5 µg/mL (≈ 4.83 µM)

Compound: O=C1NCCc2cc(Br)c(O)c(c2)Oc2c(Br)cc(cc2Br)C(O)CNC(=O)/C(=N/O)Cc2cc(Br)c(O)c(c2)Oc2ccc(cc2Br)C/C1=N\O (stereo unspecified) [BASTADIN 9]
- EC50: 5 µg/mL (≈ 4.83 µM)
